How the values were obtained:
4T1 = assay: MTS cytotoxicity assay in cell culture; format: cell-based, mouse; details: 4T1 cells, 48h incubation, prodrugs loaded in nanoemulsion, free drugs without nanoemulsion
Experimental: (§1) The MTS assay is based on the reduction of the MTS tetrazolium compound by viable mammalian cells (here, by tumor cells) to generate a colored formazan dye that is soluble in cell culture media. The formazan dye is quantified by measuring the absorbance at 490-500 nm. […] After 24h, the medium was removed and replaced by drug-containing (LipoHD-DOX nanoemulsion or DOX alone) medium. After 48h, the medium was removed and replaced with MTS-containing medium (0,5 mg/ml). After 4h of incubation, the medium was removed, replaced with 100µl of DMSO (agitation, 20 min) and the absorbance was read at 570 nm.

[1] = DOX encapsulation in nanoemulsions with or without Lipo-HD, absorption spectra after dialysis (Example 1); format: physicochemical; details: for retention inside nanoemulsions after dialysis: dialysis in 0.1M NaHCO3 for 12h; for loading: after dialysis
Experimental: The compound Lipo-HD was dissolved firstly into the oil Labrafac® at 10 wt%. Then 65 mg of surfactant Solutol was added to 35 mg of above solution. The mixture was homogenized under magnetic stirring at 90°C for 10 min up to complete homogenisation. Finally, nanoemulsions were generated with the addition of ultrapure (Milli-Q) water (230 mg). The size of nanoemulsions could be monitored by the variation of the ratio between oil (labrafac) and surfactant (solutol). For fluorescence studies, 0.5 wt% of a donor dye […] is added respectively to Labrafac® containing or not 10 wt% of Lipo-HD. Then the nanoemulsions were prepared as described above. […] was used for monitoring the encapsulation, release and stability of the nanoemulsion by looking on the intensity variation between […] and DOX. […] To those solutions, […] of DOX-HCl (30 mM) was added. The mixtures were vortexes for 12 h at 37 °C. The Scheme of synthesis is illustrated in figure 1. The resulting solutions were dialyzed in 500 mL of 0.1M NaHCO3 for 12h. Absorption spectra were recorded on a Cary® spectrophotometer (Varian) according to conventional measurement method.

MDA-MB-231 = assay: MTS cytotoxicity assay in cell culture; format: cell-based, Human; details: MDA-MB-231 cells, 48h incubation, prodrugs loaded in nanoemulsion, free drugs without nanoemulsion
Experimental: as §1

Jimt1 = assay: MTS cytotoxicity assay in cell culture; format: cell-based, Human; details: Jimt1 cells, 48h incubation, prodrugs loaded in nanoemulsion, free drugs without nanoemulsion
Experimental: as §1

[2] = Size distribution of nanoemulsions by dynamic light scattering; format: physicochemical; details: nanoemulsion with the compound at 5 wt% in Labrafac, Cremophore, reacted with doxorubicin (Example 2)
Experimental: The compound Lipo-HD was dissolved firstly into the oil Labrafac® at 10 wt%. Then 65 mg of surfactant Solutol was added to 35 mg of above solution. The mixture was homogenized under magnetic stirring at 90°C for 10 min up to complete homogenisation. Finally, nanoemulsions were generated with the addition of ultrapure (Milli-Q) water (230 mg). The size of nanoemulsions could be monitored by the variation of the ratio between oil (labrafac) and surfactant (solutol).
Size distributions were determined by dynamic light scattering using Zetasizer Nano ZSP (Malvern Instruments S.A).
(§2) Corresponding compounds of formula II'a were respectively dissolved first into the oil Labrafac® at 5 wt%. Then 45 mg of surfactant Cremophore ® was added to 55 mg of above solution. The mixture was homogenized under magnetic stirring at 40°C for 10 min up to complete homogenisation. Finally, nanoemulsions were generated with the addition of phosphate buffered saline (230 mg).

[3] = Doxorubicin loading of nanoemulsions containing compounds of formula II'a (Example 2); format: physicochemical; details: nanoemulsion with the compound at 5 wt% in Labrafac, Cremophore, reacted with doxorubicin at pH 4, 37°C, 24h, then dialysed 24h and centrifuged
Experimental: as §2
300 µl of the obtained nanoemulsion encapsulating the compound of formula II'a were diluted into 300 µl of 20 mM acetate buffer (pH=4), and then 50 µl of 30 mM solution of doxorubicin in DMSO was added. The mixture was reacted under shaking at 37°C during 24h.
After the reaction, the sample was dialysed for 24h at NaHCO3 buffer (0.1 M) at pH8 and then centrifugation at 6000 rpm for 1 minute was carried out.

[4] = Storage stability of nanoemulsions (absorption spectra, precipitation) after 4 days; format: physicochemical; details: for change of absorption spectra on storage: nanoemulsions of the compound reacted with DOX, after 4 days storage at 4°C
Experimental: • Figure 1: Scheme of synthesis of DOX/Lipo-HD conjugate in situ inside lipid nanoemulsions. • Figure 2A: Absorption spectra of 100 timed diluted nanoemulsions containing reference dye F888 and with Lipo-HD alone (F888-Lipo-HD), of 100 timed diluted nanoemulsions with Lipo-HD after incubation with DOX (F888-Lipo-HD-DOX), and of nanoemulsions encapsulating F888-Lipo-HD-DOX and further dialysis (F888-Lipo-HD-DOX after dialysis). Reference dye F888 was encapsulated at 0.5 wt% of with respect to Labrafac oil. Lipo-HD was encapsulated at 10 wt%. • Figure 2B: Absorption spectra of 100 timed diluted nanoemulsions containing F888 but without Lipo-HD (F888), of 100 times diluted nanoemulsions containing F888 after incubation with DOX (F888-DOX), and of nanoemulsion encapsulating F888-DOX further dialysis (F888-DOX after dialysis). […] Reference dye F888 was encapsulated at 0.5 wt%. • Figure 4A: Fluorescence spectra of nanoemulsions encapsulating 0.5 wt% of donor dye F888 with 10 wt% of Lipo-HD (F888-Lipo-HD) or without Lipo-HD (F888). • Figure 4B: Fluorescence spectra of nanoemulsions with Lipo-HD incubated with DOX and then dialyzed (F888-Lipo-HD-DOX), of nanoemulsions without Lipo-HD incubated with DOX and then dialyzed (F888-DOX), and of nanoemulsions containing F888 alone (F888). […] All fluorescence spectra were corrected from the blank. • Figures 5A, 5B: Fluorescence spectra of F888-Lipo-HD-DOX nanoemulsions (5000-fold dilution) in the presence of blank nanoemulsions (50-fold dilution) at pH 7.4 (Fig. 5A) and 4.0 (Fig. 5B). […] All fluorescence spectra were corrected from the blank. • Figures 5C: Fluorescence intensity ratio donor/acceptor as a function of incubation time for pH 7.4 and 4.0 (Fig. 5C). • Figure 6A, 6B: Absorption spectra of four nanoemulsions containing respectively a compound of formula I'a, where R1 and R2 are butyl (C4)-alkyl chains, or octyl (C8)-alkyl chains, or octadecyl (C18)-alkyl chains, or R1 is a single C18 alkyl-chain, while R2 = H (C18 mono chain). […]

| SMILES | Cytotoxicity (4T1) | solubility in oil ([1]; conjugate formed in situ in nanoemulsion, compared with DOX alone) | retention inside nanoemulsions after dialysis [1] | Cytotoxicity (MDA-MB-231) | Cytotoxicity (Jimt1) | loading ([1]; DOX loading of nanoemulsion without Lipo-HD) | PDI [2] | Size (nm) [2] | Encapsulation loading (%) [3] | loading efficiency (%) [3] | precipitation of nanoemulsion ([4]; nanoemulsion of the compound reacted with DOX, 4 days after preparation) | change of absorption spectra on storage [4] | loading ([1]; DOX loading with respect to labrafac oil, nanoemulsion with 10 wt% Lipo-HD, calculated with extinction coefficient of DOX 12 200 M^-1cm^-1) |
| --- | --- | --- | --- | --- | --- | --- | --- | --- | --- | --- | --- | --- | --- |
| CCCCCCCCCCCCCCCCCCN(CCCCCCCCCCCCCCCCCC)C(=O)CCC(=O)NN=C(CO)C1(O)Cc2c(O)c3c(c(O)c2C(OC2CC(N)C(O)C(C)O2)C1)C(=O)c1c(OC)cccc1C3=O (stereo not shown) [Lipo-HD-DOX] | similarly | much better soluble in oil than DOX alone | remain inside nanoemulsions after dialysis | higher toxicity | higher toxicity | – | – | – | – | – | – | – | – |
| CCCCCCCCCCCCCCCCCCN(CCCCCCCCCCCCCCCCCC)C(=O)CCC(=O)Nc1ccn([C@@H]2O[C@H](CO)[C@@H](O)C2(F)F)c(=O)n1 [Lipo-N-Gem] | dose-dependent | – | – | slightly more efficient | slightly more efficient | – | – | – | – | – | – | – | – |
| COc1cccc2c1C(=O)c1c(O)c3c(c(O)c1C2=O)C[C@@](O)(C(=O)CO)C[C@@H]3O[C@H]1C[C@H](N)[C@H](O)[C@H](C)O1 [DOX, doxorubicin, reference compound] | dose-dependent cytotoxicity | – | leaked out | dose-dependent cytotoxicity | dose-dependent cytotoxicity | < 0.06% | – | – | – | – | – | – | – |
| CCCCCCCCCCCCCCCCCCNC(=O)CCC(=O)NN [Lipo-HD-C18] | – | – | – | – | – | – | 0.132 | 104nm | 0.68% | 21% | signs of precipitation | strong loss of absorbance | – |
| CC(=O)O[C@H]1C(=O)[C@@]2(C)[C@H]([C@H](OC(=O)c3ccccc3)[C@]3(O)C[C@H](OC(=O)[C@H](O)[C@@H](NC(=O)c4ccccc4)c4ccccc4)C(C)=C1C3(C)C)[C@]1(OC(C)=O)CO[C@@H]1C[C@@H]2O [paclitacel, paclitaxel, reference compound] | slightly higher | – | – | slightly higher | slightly higher | – | – | – | – | – | – | – | – |
| CCCCCCCCCCCCCCCCCCN(CCCCCCCCCCCCCCCCCC)C(=O)CCC(=O)NN [Lipo-HD, 3-(hydrazinecarbonyl)-N,N-dioctadecylpropanamide] | – | – | – | – | – | – | 0.118 | 99nm | 1.58% | 55% | – | minimal changes | 1.6 wt% |

— patent publication EP3679952A1, “NANOEMULSIONS ENCAPSULATING PRODRUGS” (Université de Strasbourg, priority 2019, dated 2020)
